Results: patent publication US10308631B2, “Selective anti-cancer compounds” (NATIONAL UNIVERSITY OF SINGAPORE, priority 2015, dated 2019)

What was measured:
[1] = system: HCT-15 human colon adenocarcinoma xenografts; assay: Tumour xenograft efficacy, tumour volume; type: in vivo, mice; conditions: HCT15 xenografts; PO or IP twice a day, 12 days; vs vehicle
Procedure: A, B: is a graphical representation of tumour volumes estimated periodically as indicated. Mice bearing established tumour xenografts using HCT15 or MDA-MB-231 cells were treated orally (PO) or intraperitoneally (IP) twice a day with the indicated doses of Compound 1 or Compound 16 for 12 or 15 days. Paclitaxel (PTX) was given intravenously at dose of 40 mg/kg, 3 times every 4 days. Error bars show ±S.D. from mean tumour volumes obtained from 6 mice. Student's t-test was performed to determine the statistical significance (*=p<0.005). C: is a bar graph showing quantification of cells (n>100 per condition) with misaligned chromosomes and multipolar mitotic-spindles. […] tumour sections treated with Compound 16 (80 mg/kg) or control vehicle for 12 days were stained with anti-β-tubulin antibodies and DAPI. The percentage of cells with misaligned chromosomes and multipolar mitotic-spindles was quantified and plotted with mean values±S.D.
Mice bearing established tumor xenografts using HCT15 or MDA-MB-231 cells were treated orally (PO) or intraperitoneally (IP) twice a day with the indicated doses of Compound 1 or its derivative Compound 16 (b5) for 12 or 15 days, respectively. For comparison, paclitaxel (PTX) was given intravenously to mice bearing established tumour xenografts using HCT15 at dose of 40 mg/kg, 3 times every 4 days.

[2] = system: non-transformed normal BJ cells; assay: Immunofluorescence of chromosome alignment, bipolar spindle and spindle poles; type: cell-based, human; conditions: 2.5 μM, 4 h, then MG132 1.5 h
Procedure: (§1) A: is a histogram showing isogenic non-transformed and oncogene-transformed BJ cells stably expressing GFP-tagged Histone H2B as a marker for chromosome segregation, treated with Compound 1 (a131) at 2.5 μM final concentration. Mitotic progression of these cells was monitored every 10 min. More than 100 cells per condition were quantified and classified into 3 groups: no, mild and severe mitotic defects with prolonged mitotic arrest, chromosome mis-segregation and failure in cytokinesis. […] The bars represent 5 μm in length. C: is a histogram showing quantification of defects in spindle formation and chromosome alignments (n>100 cells per condition).
(§2) To investigate why massive chromosome mis-segregation occurs in oncogene-transformed BJ cells when treated with Compound 1, but not in non-transformed BJ cells, the effects of Compound 1 were studied on isogenic BJ cell lines (transformed and non-transformed) that stably express GFP-Histone H2B. Cells cultured in accordance with Biology Example 3 were treated with Compound 1 at 2.5 μM final concentration for 4 h followed by MG132 for another 1.5 h to allow chromosome alignment. […]

[3] = system: oncogene-transformed BJ cells; assay: as above; type: cell-based, human; conditions: 2.5 μM, 4 h, then MG132 1.5 h
Procedure: as §1, §2

[4] = system: non-transformed normal BJ cells; assay: BrdU incorporation and FACS analysis (cell cycle arrest); type: cell-based, human
Procedure: A: is output from a FACS analysis of isogenic-non-transformed, without (panels a-c) (WT) or with (panels d-f) shRNA-mediated knockdown of p53 (p53KD), and oncogene-transformed BJ cells (panels g-i), each treated with 0, 5 or 2.5 μM Compound 1 (a131) for 24 h. Cells were doubly stained with PI (horizontal axis) and BrdU (vertical axis). The BrdU-positive population in panels a-c are indicated as arrows. B: is a diagrammatic representation of an immunoblot analysis showing isogenic non-transformed (normal) and oncogene-transformed BJ cells (transformed) treated with Compound 1 (a131) at 0, 2.5 or 5 μM for 24 h or 48 h. Cells were harvested and total lysates were analysed by detecting p53 and p21. Antibodies raised against β-actin were used as an internal loading control. C and D are histograms showing the percentage of bromodeoxyuracil (BrdU)-positive non-transformed (normal) BJ cells. C: Cells were treated with Group 1 Compound 1 (a131) at 2.5 and 5 μM, Compound 23 (b36) at 2.5 and 5 μM, and Compound 21 (b35) at 5 μM, and Group 2 Compound 25 (a166) at 2.5 and 5 μM, for 24 h. Cells were doubly stained with propidium iodide (PI) and BrdU, and subjected to FACS analysis. The BrdU-positive population are plotted as bars. D: Cells were treated with Group 1 Compound 1 (a131), Compound 16 (b5), and Compound 17 (b9); Group 2 Compound 13 (b12), Compound 12 (b16) and Compound 25 (a166), and Group 3 Compound 3 (a159) at 5 μM for 48 h. The percentage of cells with BrdU positive population, in comparison with DMSO control vehicle, is shown with mean values±S.D. (n=3).
Isogenic non-transformed and oncogene-transformed BJ cells (cultured as in Biology Example 3) were treated with Compound 1 at final concentrations of 2.5 and 5 μM for 24 h. The treated cells were then treated with 30 μM final concentration of 5-bromo-2′-deoxyuridine (BrdU, SIGMA) for 1 h to detect DNA synthesis as a marker for cell proliferation. Subsequently, the cells were fixed in EtOH at 4° C. overnight and permeabilized with 2N HCl/0.5% Triton X-100 for 30 min. The cells were then treated with 0.1M sodium tetraborate for 2 min and stained with anti-BrdU antibody (Invitrogen, Cat#B35129) for 60 min, followed by a 30 min treatment with 20 μg/mL of propidium iodide (PI) and 10 μg/mL RNaseA.
Furthermore, the abilities of additional five (5) Compounds to arrest cells at the stage of G1/S phase of the cell cycle were evaluated. […] The abilities of these Compounds to arrest cells at the stage of G1/S phase of the cell cycle were then measured by using BrdU incorporation assay and FACS analysis. The percentage of cells with BrdU positive population in comparison with DMSO control vehicle was determined and plotted with mean values±S.D. (n=3).

SMILES | anti-tumour effect (tumour volume) [1] | chromosome alignment and spindle formation [2] | chromosome alignment and spindle formation [3] | BrdU-positive cell population ([4]; 24 h, 2.5 and 5 μM (FIG. 9A, 9C)) | arrest at the G1/S phase of the cell cycle (BrdU incorporation) ([4]; 5 μM, 48 h (FIG. 9D))
N#C/C(=C\c1cccc2cnccc12)c1c[nH]c2ccccc12 [Compound 1, (Z)-2-(1H-indol-3-yl)-3-(isoquinolin-5-yl)acrylonitrile] | showed marked anti-tumour effects | did not show marked defects in chromosome alignment | massively misaligned chromosomes with the formation of multipolar spindles | markedly decreased the number of BrdU-positive non-transformed normal BJ cells | 
N#C/C(=C\c1cccc2ncccc12)c1c[nH]c2ccccc12 [Compound 3, (Z)-2-(1H-indol-3-yl)-3-(quinolin-5-yl)acrylonitrile] |  |  |  |  | failed to do so
CN1CCN(CC(=O)n2cc(/C(C#N)=C/c3cccc4cnccc34)c3ccccc32)CC1 [Compound 16, (Z)-3-(isoquinolin-5-yl)-2-(1-(2-(4-methylpiperazin-1-yl)acetyl)-1H-indol-3-yl)acrylonitrile] | showed marked anti-tumour effects |  |  |  | 
